The text below walks through data of patent US8436043B2 (Takeda Pharmaceutical Company Limited, priority 2008, dated 2013).

One may read the IC50 as the concentration that inhibits the measured activity by half.

Each structure is given as a SMILES string.

Assay [1] deals with glucagon-induced blood glucose increase. Description: Suppressive action test for glucagon-induced blood glucose increase (rat). The format is in vivo. Conditions: SD rats male, 10 mg/kg oral, glucagon 15 μg/kg s.c. 60 min later, blood glucose 20 min after glucagon. How it is done: Suppressive Action Test for Glucagon-Induced Blood Glucose Increase (Rat)
Full feeding SD rats (male, 7- to 9-week-old) were fasted, 0.5% methylcellulose suspension containing a test compound (10 mg/kg body weight) (compound administration group, 5 rats per group) or 0.5% methylcellulose suspension (compound non-administration group, 12 rats, per group) was orally administered, and 60 min later, glucagon (15 μg/kg body weight, Novo Nordisk Pharma Ltd.) was subcutaneously administered. At 20 min from the glucagon administration, blood samples were collected from the rat tail vein and the blood glucose was measured using a self-testing glucose kit ACCU-CHEK (Roche Diagnostics K.K.). In addition, as a non-treatment group (5 rats per group), the blood glucose of rat (compound non-treatment group) free of glucagon administration was measured in the same manner as above.
The difference between the blood glucose of compound non-administration group or compound administration group and the blood glucose of non-treatment group was calculated. The percentage of “the difference between blood glucose of compound administration group and blood glucose of non-treatment group” was obtained as “blood glucose increase rate (% of control)” where “the difference between blood glucose of compound non-administration group and that of non-treatment group” is 100%.

For a further assay, the target named is T1, human glucagon receptor (Homo sapiens, UniProt P47871).
T1 construct: made in house; host or cells: FreeStyle CHO cells, transient transfection with pMSRαneo/hGCGR; membrane fraction (35,000 rpm pellet)
T1 sequence (P47871 26-477): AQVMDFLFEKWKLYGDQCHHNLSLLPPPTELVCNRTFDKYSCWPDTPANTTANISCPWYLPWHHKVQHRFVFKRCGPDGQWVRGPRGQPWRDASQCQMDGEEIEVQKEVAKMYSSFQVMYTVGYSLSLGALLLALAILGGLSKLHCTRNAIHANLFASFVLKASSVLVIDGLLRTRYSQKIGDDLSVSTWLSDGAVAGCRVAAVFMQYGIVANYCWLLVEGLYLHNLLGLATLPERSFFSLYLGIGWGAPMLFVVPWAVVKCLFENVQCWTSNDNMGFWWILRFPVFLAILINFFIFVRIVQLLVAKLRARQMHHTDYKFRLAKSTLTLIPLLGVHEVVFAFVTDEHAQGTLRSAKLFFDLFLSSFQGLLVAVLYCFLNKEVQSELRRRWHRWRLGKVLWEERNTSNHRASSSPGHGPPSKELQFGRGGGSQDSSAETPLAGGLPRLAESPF
Description: Glucagon binding inhibitory activity ([125I]-glucagon binding to glucagon receptor membrane protein). The following applies: for IC50: human glucagon receptor membrane protein, [125I]-glucagon, 90 min room temperature; for inhibition at 10 µM: read-out: inhibitory rate (%) at 10 μM. The essentials: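 Receptor source was a membrane fraction of transiently transfected CHO cells bearing human receptor; 90 min room-temperature binding, filtration harvest, scintillation counting.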

Setting [2] is: test compound 10 μM, 0.4% DMSO = 0%, non-labeled glucagon 1 μM = 100%.

As for `Cc1c(C(Nc2ccc(C(=O)N(C)CCC(=O)O)cn2)C2CCCCC2)oc2ccc(F)cc12` (single isomer, unassigned) [Example A53, 3-{[(6-{[cyclohexyl(5-fluoro-3-methyl-1-benzofuran-2-yl)methyl]amino}pyridin-3-yl)carbonyl](methyl)amino}propanoic acid], in assay [1], the “blood glucose increasing rate (% of control)” value was 27.4 % of control. Besides, the IC50 at human glucagon receptor came to 570 nM. Besides, the inhibition at 10 µM on human glucagon receptor (setting [2]) was determined as 83%.

With `Cc1c(C(Nc2ccc(C(=O)N(C)CCC(=O)O)cc2)C2CCCCC2)oc2ccccc12` (stereo not drawn) [Example A41], in assay [1], the “blood glucose increasing rate (% of control)” value is given as 16.6 % of control. For the same molecule, on human glucagon receptor (setting [2]), the “inhibitory rate (%) at 10 μM” value is recorded as 86%.

Turning to `CCC(CC)C(Nc1ccc(C(=O)N(C)CCC(=O)O)cc1)c1oc2ccc(F)cc2c1C` (single isomer, unassigned) [Example A73, 3-{[(4-{[2-ethyl-1-(5-fluoro-3-methyl-1-benzofuran-2-yl)butyl]amino}phenyl)carbonyl](methyl)amino}propanoic acid], in assay [1], the “blood glucose increasing rate (% of control)” value is 24.2 % of control. For the same molecule, the IC50 at human glucagon receptor was determined as 900 nM. Further, the inhibition at 10 µM at human glucagon receptor (setting [2]) is 87%.

Turning to `Cc1c(C(Nc2ccc(C(=O)N(C)CCC(=O)O)cc2)C2CCCCC2)oc2ccc(OC3CCOCC3)cc12` (single isomer, unassigned) [Example A83, 3-[{[4-({cyclohexyl[3-methyl-5-(tetrahydro-2H-pyran-4-yloxy)-1-benzofuran-2-yl]methyl}amino)phenyl]carbonyl}(methyl)amino]propanoic acid], the “blood glucose increasing rate (% of control)” value in assay [1] is 43.0 % of control. This molecule had a concentration for half-maximal inhibition (IC50) at human glucagon receptor of 84 nM. For the same molecule, at human glucagon receptor (setting [2]), the inhibition at 10 µM came out at 93%.

As for `CCCCCCC(Nc1ccc(C(=O)N(C)CCC(=O)O)cc1)c1cc2cc(Cl)ccc2n1C` (stereo not drawn) [Example A141, 3-{[(4-{[1-(5-chloro-1-methyl-1H-indol-2-yl)heptyl]amino}phenyl)carbonyl](methyl)amino}propanoic acid], at human glucagon receptor (setting [2]), the inhibition at 10 µM was 86%.

As for `Cc1c(C(Nc2ccc(C(=O)N(C)CCC(=O)O)cc2)C2CCCCC2)oc2ccc(OCC3(C)COC3)cc12` (stereo not drawn) [Example A196, 3-[({4-[(cyclohexyl{3-methyl-5-[(3-methyloxetan-3-yl)methoxy]-1-benzofuran-2-yl}methyl)amino]phenyl}carbonyl)(methyl)amino]propanoic acid], the inhibition at 10 µM at human glucagon receptor (setting [2]) worked out at 87%.

Regarding `CC(C)c1nn(-c2ccc(C(F)(F)F)cn2)cc1C(Nc1ccc(C(=O)NCCC(=O)O)cc1)C1CCCCC1` (stereo not drawn) [Example 7, 3-[({4-[(cyclohexyl{3-(1-methylethyl)-1-[5-(trifluoromethyl)pyridin-2-yl]-1H-pyrazol-4-yl}methyl)amino]phenyl}carbonyl)amino]propanoic acid], the inhibition at 10 µM at human glucagon receptor (setting [2]) was found to be 72%.

As for `Cc1c(C(Nc2ccc(C(=O)N(C)CCC(=O)O)cn2)C2CCCCC2)oc2ccc(F)cc12` (stereo not drawn) [Example A52, 3-{[(6-{[cyclohexyl(5-fluoro-3-methyl-1-benzofuran-2-yl)methyl]amino}pyridin-3-yl)carbonyl](methyl)amino}propanoic acid], at human glucagon receptor (setting [2]), the inhibition at 10 µM was found to be 64%.

As for `Cc1c(C(Nc2ccc(C(=O)N(C)CCC(=O)O)cc2)C(C)C)oc2ccc(C3CC3)cc12` (stereo not drawn) [Example A184, 3-{[(4-{[1-(5-cyclopropyl-3-methyl-1-benzofuran-2-yl)-2-methylpropyl]amino}phenyl)carbonyl](methyl)amino}propanoic acid], the inhibition at 10 µM at human glucagon receptor (setting [2]) is 74%.

With `Cc1c(C(Nc2ccc(C(=O)N(C)CCC(=O)O)cc2)C2CCCCC2)oc2ccc(OCC(C)(C)O)cc12` (stereo not drawn) [Example A195, 3-[{[4-({cyclohexyl[5-(2-hydroxy-2-methylpropoxy)-3-methyl-1-benzofuran-2-yl]methyl}amino)phenyl]carbonyl}(methyl)amino]propanoic acid], the inhibition at 10 µM on human glucagon receptor (setting [2]) turned out to be 84%.

Take `COCc1c(C(Nc2ccc(C(=O)NCCC(=O)O)cc2)C2CCCCC2)oc2ccc(F)cc12` (stereo not drawn) [Example A47, 3-({[4-({cyclohexyl[5-fluoro-3-(methoxymethyl)-1-benzofuran-2-yl]methyl}amino)phenyl]carbonyl}amino)propanoic acid]: the inhibition at 10 µM at human glucagon receptor (setting [2]) is 67%.
